Test results as given in ChEMBL document CHEMBL1137558, “Synthesis and biological evaluation of new 2-arylcarbonyl-3-trifluoromethylquinoxaline 1,4-di-N-oxide derivatives and their reduced analogues” (2007).

Tests used:
[1] = Anticancer activity against breast cancer cells; type: functional; settings: Homo sapiens, Cancer cell lines
[2] = Anticancer activity against renal cancer cells; type: functional; settings: Homo sapiens, Cancer cell lines
[3] = Anticancer activity against nonsmall lung cancer cells; type: functional; settings: Homo sapiens, Cancer cell lines
[4] = Anticancer activity against CNS cancer cells; type: functional; settings: Homo sapiens, Cancer cell lines
[5] = Anticancer activity against melanoma cells; type: functional; settings: Homo sapiens, Melanoma cell
[6] = Anticancer activity against ovarian cancer cells; type: functional; settings: Homo sapiens, Cancer cell lines
[7] = Anticancer activity against human NCI60 cells; type: functional; settings: for CC50: read-out: LC50 (the source's name)
[8] = Anticancer activity against prostate cancer cells; type: functional; settings: Homo sapiens, Cancer cell lines
[9] = Anticancer activity against leukemia cells; type: functional; settings: Homo sapiens, Leukemia cell
[10] = Anticancer activity against colon cancer cells; type: functional; settings: Homo sapiens, Cancer cell lines
[11] = test system: MCF7; test: Growth inhibition of MCF7 cells at 100 uM after 48 hrs; type: functional, Homo sapiens; set-up: scale not given: the % may be the effect or the level left
[12] = test system: SF-268; test: Growth inhibition of SF268 cells at 100 uM after 48 hrs; type: functional, Homo sapiens; set-up: scale not given: the % may be the effect or the level left
[13] = test system: CCRF-CEM; test: Anticancer activity against CCRF-CEM cells; type: functional; settings: Homo sapiens
[14] = test system: MOLT-4; test: Anticancer activity against MOLT4 cells; type: functional; settings: Homo sapiens
[15] = test system: HL-60; test: Anticancer activity against HL60 cells; type: functional; settings: Homo sapiens
[16] = test system: SR; test: Anticancer activity against SR cells; type: functional; settings: Homo sapiens
[17] = test system: K562; test: Anticancer activity against K562 cells; type: functional; settings: Homo sapiens
[18] = test system: NCI-H460; test: Growth inhibition of NCI-H460 cells at 100 uM after 48 hrs; type: functional, Homo sapiens; set-up: scale not given: the % may be the effect or the level left

| SMILES | GI50 [1] [nM] | GI50 [2] [nM] | GI50 [3] [nM] | GI50 [4] [nM] | GI50 [5] [nM] | GI50 [6] [nM] | GI50 [7] [nM] | TGI [7] [nM] | CC50 [7] [nM] | GI50 [8] [nM] | GI50 [9] [nM] | GI50 [10] [nM] | Activity [11] [%] | Activity [12] [%] | GI50 [13] [nM] | GI50 [14] [nM] | GI50 [15] [nM] | GI50 [16] [nM] | GI50 [17] [nM] | Activity [18] [%] |
| --- | --- | --- | --- | --- | --- | --- | --- | --- | --- | --- | --- | --- | --- | --- | --- | --- | --- | --- | --- | --- |
| O=C(c1ccc2ccccc2c1)c1c(C(F)(F)F)[n+]([O-])c2cc(F)c(F)cc2[n+]1[O-] | 2360 | 2180 | 3470 | 2510 | 2500 | 3800 | 2190 | 6460 | 23400 | 1460 | 770 | 1710 |  |  |  |  |  |  |  |  |
| O=C(c1ccco1)c1c(C(F)(F)F)[n+]([O-])c2ccc(F)cc2[n+]1[O-] | 1330 | 2410 | 3130 | 2350 | 1560 | 2030 | 1620 | 4270 | 15800 | 2600 | 300 | 1060 | 72 | 82 |  |  |  |  |  |  |
| O=C(c1cccs1)c1c(C(F)(F)F)[n+]([O-])c2cc(C(F)(F)F)ccc2[n+]1[O-] | 180 | 240 | 300 | 180 | 330 | 200 | 180 | 470 | 1480 | 150 | 30 | 150 |  |  | 70 | 20 | < 10 | 20 |  |  |
| O=C(c1ccccc1)c1c(C(F)(F)F)[n+]([O-])c2cc(C(F)(F)F)ccc2[n+]1[O-] | 1410 | 1470 | 1660 | 1710 | 1230 | 1180 | 1290 | 2950 | 8320 | 1320 | 770 | 1710 |  |  |  |  |  |  |  |  |
| O=C(c1ccccc1)c1c(C(F)(F)F)[n+]([O-])c2ccc(F)cc2[n+]1[O-] | 730 | 1140 | 800 | 1450 | 950 | 1340 | 780 | 2510 | 9120 | 530 | 230 | 540 |  |  |  |  |  |  |  |  |
| O=C(c1ccccc1)c1c(C(F)(F)F)[n+]([O-])c2ccc(C(F)(F)F)cc2[n+]1[O-] | 540 | 330 | 640 | 690 | 1130 | 580 | 510 | 1230 | 3890 | 270 | 240 | 460 |  |  |  |  |  |  |  |  |
| O=C(c1cccs1)c1c(C(F)(F)F)[n+]([O-])c2cc(Cl)c(Cl)cc2[n+]1[O-] | 790 | 1600 | 2040 | 670 | 940 | 1160 | 740 | 3020 | 11000 | 790 | 20 | 590 |  |  | < 10 | < 10 |  | < 10 | < 10 |  |
| COc1ccc2c(c1)[n+]([O-])c(C(=O)c1ccc3ccccc3c1)c(C(F)(F)F)[n+]2[O-] |  |  | 800 |  |  |  |  |  |  |  |  |  | <32 | <32 |  |  |  |  |  | <32 |
